The values that follow come from patent publication US7786141B2 (Vertex Pharmaceuticals Incorporated, priority 2004, dated 2010).

In general, Emax refers to the greatest response seen or fitted, relative to the assay's reference.

A value given as a limit tells only on which side of the number the result lay.

The target of one assay is T1, M1 muscarinic receptor (Homo sapiens, UniProt P11229).
T1 construct: expressed in transfected cells; host or cells: CHO (M1-CHO)
T1 sequence (P11229 1-460): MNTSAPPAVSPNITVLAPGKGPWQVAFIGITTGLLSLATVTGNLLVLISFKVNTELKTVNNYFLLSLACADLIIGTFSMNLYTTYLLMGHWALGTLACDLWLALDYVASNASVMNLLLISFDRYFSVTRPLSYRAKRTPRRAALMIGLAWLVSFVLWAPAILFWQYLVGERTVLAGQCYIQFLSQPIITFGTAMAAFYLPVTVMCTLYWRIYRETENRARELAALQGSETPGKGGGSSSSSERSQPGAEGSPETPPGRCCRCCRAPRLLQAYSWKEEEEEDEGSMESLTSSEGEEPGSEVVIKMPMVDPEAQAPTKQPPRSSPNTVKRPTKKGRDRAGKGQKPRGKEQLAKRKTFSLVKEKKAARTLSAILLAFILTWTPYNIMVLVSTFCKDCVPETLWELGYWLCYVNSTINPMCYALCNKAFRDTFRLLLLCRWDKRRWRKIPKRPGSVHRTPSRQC
The assay can be described thus: Functional mobilization of intracellular calcium (FLIPR) in M1-CHO cells. It counts as cell-based. As to conditions: Table 4; for Emax: 100% efficacy is the maximum response obtained with the Carbachol control; for M1 Activity: modulating M1 receptor. Put shortly:
(§1)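 Measured via Fluo-3 fluorescence on a FLIPR, CHO cells with either muscarinic subtype received compound in 0.5% DMSO. Antagonism was assessed after 15 min pre-incubation followed by carbachol at each subtype's EC80; agonism from compound addition alone.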
Background: Calcium assays in cells follow changes in intracellular calcium, usually with a dye or a luminescent sensor.

Another assay addresses T2, M4 muscarinic receptor (Homo sapiens, UniProt P08173).
T2 construct: expressed in transfected cells; host or cells: CHO (M4-CHO)
T2 sequence (P08173 1-479): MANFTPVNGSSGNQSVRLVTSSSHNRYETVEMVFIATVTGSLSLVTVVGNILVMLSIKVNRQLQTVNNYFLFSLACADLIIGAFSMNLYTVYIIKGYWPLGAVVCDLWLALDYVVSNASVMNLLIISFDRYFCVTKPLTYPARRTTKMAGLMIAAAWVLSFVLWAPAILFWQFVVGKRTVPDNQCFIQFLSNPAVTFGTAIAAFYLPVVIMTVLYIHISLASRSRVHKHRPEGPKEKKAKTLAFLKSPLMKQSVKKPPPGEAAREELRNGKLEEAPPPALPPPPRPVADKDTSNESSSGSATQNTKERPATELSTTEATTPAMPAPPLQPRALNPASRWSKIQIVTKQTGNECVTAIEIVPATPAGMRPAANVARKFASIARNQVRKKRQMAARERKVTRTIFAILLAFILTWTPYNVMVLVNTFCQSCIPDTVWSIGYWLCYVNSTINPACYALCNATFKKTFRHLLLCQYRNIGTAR
The assay can be described thus: Functional mobilization of intracellular calcium (FLIPR) in M4-CHO cells. In kind it is cell-based. The note with it: Table 4; for Emax: 100% efficacy is the maximum response obtained with the Carbachol control; for M4 Activity: modulating M4 receptor. Summed up: as §1

As for `CC(=O)N[C@H]1CCC2(CCN(C3CC(C)(C)CC(C)(C)C3)CC2)c2ccccc21` [compound 504], at M1 muscarinic receptor, the Emax was less than 25% and the “M1 Activity” value is on record as “x (activity was measured to be greater than 5.0 μM)”. Besides, at M4 muscarinic receptor, the Emax is less than 25% and the “M4 Activity” value was “x (activity was measured to be greater than 5.0 μM)”.
For `CC(=O)N1CC2(CCN(C3CCN(c4cnccn4)CC3)CC2)c2ccccc21` [compound 505], at M1 muscarinic receptor, the Emax fell in the range of 25 to 100% and the “M1 Activity” value is “xxx (activity was measured to be less than 2.0 μM)”. Also, at M4 muscarinic receptor, the maximal response (Emax) is 25 to 100% and the “M4 Activity” value is “xxx (activity was measured to be less than 2.0 μM)”.
For the molecule `CC(=O)N[C@@H]1CCC2(CCN([C@@H]3C[C@H]4CC[C@@H]3C4)CC2)c2ccccc21` [compound 506], on M1 muscarinic receptor, the Emax is less than 25% and the “M1 Activity” value is reported as “x (activity was measured to be greater than 5.0 μM)”. Further, at M4 muscarinic receptor, the maximal effect (Emax) was 25 to 100%; the “M4 Activity” value was “xx (activity was measured to be between 2.0 μM and 5.0 μM)”.
Turning to `CCCOC(=O)N1C2CCC1CC(N1CCC3(CC1)CN(C(C)=O)c1ccccc13)C2` (centres unmarked) [compound 507], on M1 muscarinic receptor, the Emax lay in the range of 25 to 100% and the “M1 Activity” value is on record as “xxx (activity was measured to be less than 2.0 μM)”. At M4 muscarinic receptor, the Emax was 25 to 100% and the “M4 Activity” value was “xxx (activity was measured to be less than 2.0 μM)”.
In the case of `C/C=C/C(=O)N1CC2(CCN(C3CCN(C(=O)OCC)CC3)CC2)c2cc(F)ccc21` [compound 508], on M1 muscarinic receptor, the Emax was in the range of 25 to 100% and the “M1 Activity” value is recorded as “xxx (activity was measured to be less than 2.0 μM)”. For the same molecule, on M4 muscarinic receptor, the Emax was 25 to 100% and the “M4 Activity” value is recorded as “xxx (activity was measured to be less than 2.0 μM)”.
As to `CCOC(=O)N1CCC(N2CCC3(CC2)CN(C(C)=O)c2c(C)cccc23)CC1` [compound 509], on M1 muscarinic receptor, the maximal effect (Emax) was 25 to 100%; the “M1 Activity” value is “xx (activity was measured to be between 2.0 μM and 5.0 μM)”. For the same molecule, at M4 muscarinic receptor, the Emax was 25 to 100% and the “M4 Activity” value is reported as “x (activity was measured to be greater than 5.0 μM)”.
For the molecule `CCCOC(=O)N1CC[C@H](CN2CCC3(CC2)CN(C(=O)N(C)C)c2ccc(F)cc23)C1` [compound 510], at M1 muscarinic receptor, the Emax is 25 to 100% and the “M1 Activity” value is “xxx (activity was measured to be less than 2.0 μM)”. On M4 muscarinic receptor, the Emax was in the range of 25 to 100% and the “M4 Activity” value is “xxx (activity was measured to be less than 2.0 μM)”.
For `COc1cc2c(cc1OC)C1(CCN(CC3CCCCC3)CC1)C[C@@H]2NC(C)=O` [compound 511], on M1 muscarinic receptor, the Emax was less than 25% and the “M1 Activity” value is recorded as “x (activity was measured to be greater than 5.0 μM)”. Moreover, at M4 muscarinic receptor, the Emax was less than 25% and the “M4 Activity” value is reported as “x (activity was measured to be greater than 5.0 μM)”.
On to `COC1CCCCC1N1CCC2(CC1)CN(C(C)=O)c1ccc(F)cc12` (centres unmarked) [compound 512], for which, at M1 muscarinic receptor, the Emax is less than 25% and the “M1 Activity” value is reported as “x (activity was measured to be greater than 5.0 μM)”. At M4 muscarinic receptor, the maximal response (Emax) is less than 25% and the “M4 Activity” value is listed as “x (activity was measured to be greater than 5.0 μM)”.
Regarding `CCOC(=O)N1CCC(N2CCC3(CC2)CN(C2CCC4(CC2)OCCO4)c2ccccc23)CC1` [compound 513], on M1 muscarinic receptor, the Emax fell in the range of 25 to 100% and the “M1 Activity” value is listed as “xxx (activity was measured to be less than 2.0 μM)”. Also, at M4 muscarinic receptor, the Emax lay in the range of 25 to 100% and the “M4 Activity” value is “xxx (activity was measured to be less than 2.0 μM)”.
As for `CC(=O)N[C@H]1CCC2(CCN(CC3CC3)CC2)c2ccccc21` [compound 514], at M1 muscarinic receptor, the Emax is 25 to 100%; the “M1 Activity” value was “xx (activity was measured to be between 2.0 μM and 5.0 μM)”. In addition, on M4 muscarinic receptor, the Emax is 25 to 100% and the “M4 Activity” value is reported as “x (activity was measured to be greater than 5.0 μM)”.
Take `CC#CC(C)OC(=O)N1C2CCC1CC(N1CCC3(CC1)CN(C(C)=O)c1ccccc13)C2` (centres unmarked) [compound 515]: on M1 muscarinic receptor, the maximal effect (Emax) fell in the range of 25 to 100% and the “M1 Activity” value is “xxx (activity was measured to be less than 2.0 μM)”. In addition, at M4 muscarinic receptor, the Emax was in the range of 25 to 100% and the “M4 Activity” value is “xxx (activity was measured to be less than 2.0 μM)”.
With `C#CCOC(=O)N1C2CCC1CC(N1CCC3(CC1)CN(C(C)=O)c1ccccc13)C2` (centres unmarked) [compound 516], on M1 muscarinic receptor, the Emax lay within 25 to 100% and the “M1 Activity” value was “xxx (activity was measured to be less than 2.0 μM)”. In addition, at M4 muscarinic receptor, the Emax lay within 25 to 100% and the “M4 Activity” value is “xxx (activity was measured to be less than 2.0 μM)”.
As to `CCOC(=O)N1CCC(N2CCC3(CC2)CN(c2ccncc2)c2ccc(F)cc23)CC1` [compound 517], on M1 muscarinic receptor, the maximum response (Emax) is 25 to 100% and the “M1 Activity” value is recorded as “xxx (activity was measured to be less than 2.0 μM)”. For the same molecule, on M4 muscarinic receptor, the Emax fell in the range of 25 to 100% and the “M4 Activity” value is “xxx (activity was measured to be less than 2.0 μM)”.
In the case of `CCCOC(=O)N1CC[C@H](CN2CCC3(CC2)CN(C(C)=O)c2ccccc23)C1` [compound 518], on M1 muscarinic receptor, the maximal response (Emax) was less than 25% and the “M1 Activity” value is given as “x (activity was measured to be greater than 5.0 μM)”. Besides, on M4 muscarinic receptor, the Emax was less than 25% and the “M4 Activity” value is given as “x (activity was measured to be greater than 5.0 μM)”.
Regarding `O=C(N[C@H]1CC2(CCN(C[C@@H]3C[C@H]4C=C[C@H]3C4)CC2)c2ccccc21)c1ccoc1` [compound 519], on M1 muscarinic receptor, the Emax is 25 to 100% and the “M1 Activity” value was “xxx (activity was measured to be less than 2.0 μM)”. Besides, at M4 muscarinic receptor, the Emax is less than 25% and the “M4 Activity” value is “x (activity was measured to be greater than 5.0 μM)”.
Regarding `CN(C)C(=O)N1CC2(CCN(C3CCN(C(=O)[C@H]4CCCO4)CC3)CC2)c2cc(F)ccc21` [compound 520], at M1 muscarinic receptor, the Emax is 25 to 100% and the “M1 Activity” value is reported as “x (activity was measured to be greater than 5.0 μM)”. For the same molecule, on M4 muscarinic receptor, the Emax was less than 25% and the “M4 Activity” value was “x (activity was measured to be greater than 5.0 μM)”.
Regarding `COc1cc2c(cc1OC)C1(CCN(C3CCCCC3)CC1)C[C@@H]2NC(C)=O` [compound 521], at M1 muscarinic receptor, the Emax is less than 25% and the “M1 Activity” value is “x (activity was measured to be greater than 5.0 μM)”. Besides, on M4 muscarinic receptor, the Emax was less than 25% and the “M4 Activity” value is “x (activity was measured to be greater than 5.0 μM)”.
With `CCOC(=O)N1CCC(N2CCC3(CC2)CN(C(=O)C(=O)CC)c2ccc(F)cc23)CC1` [compound 522], at M1 muscarinic receptor, the Emax was greater than 100% and the “M1 Activity” value is reported as “xxx (activity was measured to be less than 2.0 μM)”. At M4 muscarinic receptor, the Emax was in the range of 25 to 100% and the “M4 Activity” value is “xxx (activity was measured to be less than 2.0 μM)”.
As for `O=C(N[C@H]1CC2(CCN(C3C[C@H]4CC[C@@H]3C4)CC2)c2ccccc21)N1CCCCC1` (some centres unmarked) [compound 525], at M1 muscarinic receptor, the Emax was less than 25% and the “M1 Activity” value was “x (activity was measured to be greater than 5.0 μM)”. Also, on M4 muscarinic receptor, the maximum response (Emax) fell in the range of 25 to 100% and the “M4 Activity” value is listed as “xxx (activity was measured to be less than 2.0 μM)”.
Turning to `CC#CCOC(=O)N1CCC(N2CCC3(CC2)CN(C(C)=O)c2cccc(C)c23)CC1` [compound 526], at M1 muscarinic receptor, the Emax is 25 to 100% and the “M1 Activity” value is given as “xxx (activity was measured to be less than 2.0 μM)”. Further, on M4 muscarinic receptor, the Emax is less than 25% and the “M4 Activity” value is “x (activity was measured to be greater than 5.0 μM)”.
Consider `CCCC#CCOC(=O)N1CC[C@@H](CN2CCC3(CC2)CN(C(=O)N(C)C)c2ccc(F)cc23)C1` [compound 527], for which, at M1 muscarinic receptor, the Emax fell in the range of 25 to 100% and the “M1 Activity” value is “xxx (activity was measured to be less than 2.0 μM)”. At M4 muscarinic receptor, the maximal effect (Emax) lay within 25 to 100% and the “M4 Activity” value is given as “xxx (activity was measured to be less than 2.0 μM)”.
On to `CN(C)C(=O)N1CC2(CCN(C3CCN(c4cncnc4)CC3)CC2)c2cc(F)ccc21` [compound 528], for which, at M1 muscarinic receptor, the maximum response (Emax) was in the range of 25 to 100%; the “M1 Activity” value was “xx (activity was measured to be between 2.0 μM and 5.0 μM)”. Moreover, at M4 muscarinic receptor, the Emax lay in the range of 25 to 100% and the “M4 Activity” value is listed as “xxx (activity was measured to be less than 2.0 μM)”.
